Converted amounts (≈) assume the structure as drawn.
What was measured:
[1] = test system: 20-HETE formation (CYP4) in HLM; assay: Inhibition of 20-HETE formation at 250 or 500 nM in HLM microsomal incubations; type: biochemical, human; conditions: 500 nM compound; HLM 300 μg/ml, AA 100 μM, 20 min
Method: (§1) To screen the inhibitory effects against 20-HETE formation, compounds were screened in HLM, RLM, RKM and rCYP4F2 microsomal incubations. Compounds dissolved in either 100% methanol or 100% DMSO to yield 10 mM stock solution. Microsomal incubations containing HLM, RLM, RKM (300 μg/ml) or rCYP4F2 (25 pmol/mL), AA (100 μM), NADPH (1 mM) treated with test compounds at various concentrations (500 nM or 250 nM) in a 1 ml total volume in incubation buffer (0.12 M potassium phosphate buffer containing 5 mM magnesium chloride). Reaction was started by adding NADPH to the incubates and was carried out at 37° C. in a shaking water bath for 20 min. Reaction was stopped by placing tubes on ice, followed by adding 125 μl 20-HETE-d6 as internal standard to each sample. Microsomal incubations were extracted with 3 ml ethyl ether twice, dried down under nitrogen gas and reconstituted in 125 μl 80:20 methanol:deionized H2O for analysis. 20-HETE formation was quantified using a validated UPLC-MS/MS assay and normalized by vehicle group. Each compound had three replications (n=3). Vehicle group was used as control to calculate percentage of 20-HETE formation rate. HET0016 (250 nM) was used as positive control. Incubates without NADPH group served as the negative control. An Acquity ultra performance LC autosampler (Waters, Milford, MA) was used to isolate 20-HETE on an UPLC BEH C18, 1.7 μm (2.1×100 mm) reversed-phase column (Waters, Milford, MA) protected by a guard column (2.1×5 mm; Waters, Milford, MA) of the same packing material. Column temperature was maintained at 55° C. Mobile phases consisted of 0.005% acetic acid, 5% acetonitrile in deionized water (A) and 0.005% acetic acid in acetonitrile (B). The flow rate for mobile phases is 0.5 ml/min. The initial mixture of mobile phase was 65:35 of A and B. Mobile phase B increased at 0.4 minutes after injection from 35% to 70% in a linear gradient over 4 minutes, and again increased to 95% over 0.5 minutes where it remained for 0.3 minutes. This was followed by a linear return to initial conditions over 0.1 minutes with a 1.5 minute pre-equilibration period prior to the next sample run. Total run time was 6.4 minutes for each injection. Injection volumes were 7.5 μl. Mass spectrometric analysis was carried out using a TSQ Quantum Ultra (Thermo Fisher Scientific, San Jose, CA) triple quadrupole mass spectrometer using heated electrospray ionization (HESI). Mass spectrometer was operated in negative selective reaction monitoring (SRM) mode with unit resolutions at both Q1 and Q3 set at 0.70 Da full width at half maximum. Scan time was set at 0.01 s and collision gas pressure was 1.3 mTorr. Quantitation of 20-HETE by SRM was performed by monitoring the m/z. Analytical data was acquired and analyzed using Xcaliber 3.0 data system (ThermoFinnigan, San Jose, CA).

[2] = biological target: T1, rCYP4F2 (Homo sapiens, UniProt P78329); assay: Inhibition of 20-HETE formation at 250 or 500 nM in rCYP4F2 incubations; type: biochemical; conditions: 500 nM compound, rCYP4F2 25 pmol/mL; for inhibition at 0.5 µM: read-out: rCYP4F2 % inh. @ 500 nM
T1 sequence (P78329 5-520): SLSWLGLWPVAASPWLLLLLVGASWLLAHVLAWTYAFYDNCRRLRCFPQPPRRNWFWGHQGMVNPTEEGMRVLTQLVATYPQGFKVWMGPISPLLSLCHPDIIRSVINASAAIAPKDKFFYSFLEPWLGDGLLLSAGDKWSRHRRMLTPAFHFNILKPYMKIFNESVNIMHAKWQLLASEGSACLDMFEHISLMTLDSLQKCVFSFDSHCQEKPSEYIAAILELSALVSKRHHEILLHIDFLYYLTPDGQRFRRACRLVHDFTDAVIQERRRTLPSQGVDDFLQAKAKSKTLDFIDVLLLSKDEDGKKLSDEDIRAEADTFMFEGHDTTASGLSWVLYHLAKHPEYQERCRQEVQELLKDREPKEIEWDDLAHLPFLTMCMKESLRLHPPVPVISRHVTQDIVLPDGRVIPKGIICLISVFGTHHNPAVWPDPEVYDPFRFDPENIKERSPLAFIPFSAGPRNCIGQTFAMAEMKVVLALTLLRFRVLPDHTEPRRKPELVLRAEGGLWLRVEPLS
Method: as §1

[3] = test system: 20-HETE formation (CYP4) in RKM; assay: Inhibition of 20-HETE formation at 250 or 500 nM in RKM microsomal incubations; type: biochemical, rat; conditions: 500 nM compound; RKM 300 μg/ml
Method: as §1

[4] = test system: 20-HETE formation (CYP4) in RLM; assay: Inhibition of 20-HETE formation at 250 or 500 nM in RLM microsomal incubations; type: biochemical, rat; conditions: 500 nM compound; RLM 300 μg/ml
Method: as §1

[5] = Turbidometric solubility determination; type: physicochemical; conditions: PBS with 1% DMSO, aqueous buffer, kinetic from dmso stock, room temperature, OD620, read-out: Max Solub
Method: Solubility determinations shown in Table 3 were obtained turbidometrically and in a manner similar to the one described in Perez et al., J. Biomol. Screen, 2015, 20(2), 254-64. The method requires small volumes of 100× stock concentration drug solution to be prepared in DMSO 0, 0.23, 0.47, 0.94, 1.88, 3.75, 7.5, 15.0, 30.0 and […]. The stock drug concentrations are then diluted 1:100 added into triplicate wells containing PBS in a clear bottom 384 well microtiter to achieve final testing concentrations of 0, 2.3, 4.7, 9.4, 18.8, 37.5, 75, 150, 300, 600 μM in 1% DMSO. The plate is allowed to equilibrate with constant shaking for 2 hours at room temperature. The plate is then placed in a SpectroMax V plate reader to measure absorbance at 620 nm. Increase in absorbance is evident in test wells which precipitation of the compound is evident. The plot of OD620 vs. drug concentration is used to calculate the maximum solubility limit as determined by a statistically significant increase in absorbance above the background levels.

HLM % inh. @ 500 nM [1] [%]	inhibition at 0.5 µM [2] [%]	RKM % inh. @ 500 nM [3] [%]	RLM % inh. @ 500 nM [4] [%]	solubility at 2 h [5] [µM]	rCYP4F2 % inh. @ 500 nM [2] [%]	SMILES
0.00	0	0.00	0.00			c1cnc(C2CCN(c3ccn[nH]3)CC2)nc1 [Compound 9, 2-(1-(1H-Pyrazol-5-yl)piperidin-4-yl)pyrimidine]
0.00	66.5	1.60	3.60			COC(=O)c1ccc(C2CCN(c3ccn[nH]3)CC2)cc1 [Compound 11, Methyl 4-(1-(1H-pyrazol-5-yl)piperidin-4-yl)benzoate]
0.00	63.7	6.40	18.30			COC(=O)c1ccc(C2CCN(c3cn[nH]c3)CC2)cc1 [Compound 12, Methyl 4-(1-(1H-pyrazol-4-yl)piperidin-4-yl)benzoate]
61	54.7		0.00	164 (≈ 45.2 µg/mL)		COc1cc(F)cc(C2CCN(c3ccn[nH]3)CC2)c1 [Compound 73, 4-(3-Fluoro-5-methoxyphenyl)-1-(1H-pyrazol-5-yl)piperidine]
55	32		0.00	201 (≈ 55.3 µg/mL)		COc1cc(C2CCN(c3ccn[nH]3)CC2)ccc1F [Compound 74, 4-(4-Fluoro-3-methoxyphenyl)-1-(1H-pyrazol-5-yl)piperidine]
79.4	80.3		42.70	> 600		O=C1CCCN1Cc1ccc(C2CCN(c3ccn[nH]3)CC2)cc1 [Compound 84, 1-(4-(1-(1H-Pyrazol-5-yl)piperidin-4-yl)benzyl)pyrrolidin-2-one]
34.8	72.9		0.00	324 (≈ 104 µg/mL)		CS(=O)(=O)Cc1ccc(C2CCN(c3cn[nH]c3)CC2)cc1 [Compound 89, 4-(4-((methylsulfonyl)methyl)phenyl)-1-(1H-pyrazol-4-yl)piperidine]
78.90	82.3		63.60	216 (≈ 70.1 µg/mL)		O=C1CCCN1c1ccc(CC2CCN(c3cn[nH]c3)CC2)cc1 [Compound 107, 1-(4-((1-(1H-Pyrazol-4-yl)piperidin-4-yl)methyl)phenyl)pyrrolidin-2-one]
80.4	84.1		63.60	421 (≈ 144 µg/mL)		O=C1CCCN1Cc1ccc(C2CCN(c3ccn[nH]3)CC2)cc1F [Compound 110, 1-(4-(1-(1H-Pyrazol-5-yl)piperidin-4-yl)-2-fluorobenzyl)pyrrolidin-2-one]
68.7	87.4		36.70	74 (≈ 25.6 µg/mL)		O=S(=O)(Nc1ccc(C2CCN(c3cn[nH]c3)CC2)cc1)C1CC1 [Compound 114, N-(4-(1-(1H-pyrazol-4-yl)piperidin-4-yl)phenyl)cyclopropanesulfonamide]

Continued, compound first:

SMILES	HLM % inh. @ 500 nM [1] [%]	inhibition at 0.5 µM [2] [%]	RKM % inh. @ 500 nM [3] [%]	RLM % inh. @ 500 nM [4] [%]	solubility at 2 h [5] [µM]	rCYP4F2 % inh. @ 500 nM [2] [%]
c1cnc(N2CCN(c3cn[nH]c3)CC2)nc1 [Compound 4, 2-(4-(1H-Pyrazol-4-yl)piperazin-1-yl)pyrimidine]	0.00	0	0.00	0.00		
c1ccc(N2CCN(c3cn[nH]c3)CC2)cc1 [Compound 5, 1-Phenyl-4-(1H-pyrazol-4-yl)piperazine]	24.50	2.6	0.00	0.00		
COc1ccc(N2CCN(c3cn[nH]c3)CC2)cc1 [Compound 6, 1-(4-Methoxyphenyl)-4-(1H-pyrazol-4-yl)piperazine]	31.80	6.1	1.20	0.00		
c1cnc(C2CCN(c3cn[nH]c3)CC2)nc1 [Compound 10, 2-(1-(1H-Pyrazol-4-yl)piperidin-4-yl)pyrimidine]	0.00	0	0.00	0.00		
CC(=O)N(C)c1ccc(C2CCN(c3cn[nH]c3)CC2)cn1 [Compound 13, N-(5-(1-(1H-Pyrazol-4-yl)piperidin-4-yl)pyridin-2-yl)-N-methylacetamide]	29.00	1	27.00	3.00		
COc1cc(C2CCN(c3cn[nH]c3)CC2)ccn1 [Compound 15, 4-(1-(1H-Pyrazol-4-yl)piperidin-4-yl)-2-methoxypyridine]	39.00	54	27.00	16.00		
COc1cc(C2CCN(c3cn[nH]c3)CC2)ccc1F [Compound 75, 4-(4-Fluoro-3-methoxyphenyl)-1-(1H-pyrazol-4-yl)piperidine]	61.10	74.5		0.00	127 (≈ 35 µg/mL)	
COc1ccc(SC2CCN(c3cn[nH]c3)CC2)cc1 [Compound 80, 4-((4-Methoxyphenyl)thio)-1-(1H-pyrazol-4-yl)piperidine]	86	90		42.00	89 (≈ 25.8 µg/mL)	
O=S1(=O)Cc2ccc(C3CCN(c4cn[nH]c4)CC3)cc2C1 [Compound 108, 5-(1-(1H-Pyrazol-4-yl)piperidin-4-yl)-1,3-dihydrobenzo[c]thiophene 2,2-dioxide]	90.00	83		41.70	187 (≈ 59.4 µg/mL)	
Cl.Clc1ccc(CC2CCN(c3cn[nH]c3)CC2)cc1 [Compound 115, 4-(4-Chlorobenzyl)-1-(1H-pyrazol-4-yl)piperidine hydrochloride]	85.50			74.30	74	84.20
